Experiment [1] relates to Sec10-overexpressing MDCK cells. Conditions: U0126 30 min, then 1 mM H2O2 plus U0126 30 min. The method, then: (§1) Normal and hSec10-overexpressing (Sec10) MDCK cells were grown on collagen-matrix for 12-14 days as described herein and then treated with 1 mM of hydrogen peroxide for 30 min. Some cells were treated with 10 μM U0126 30 min before the treatment of hydrogen peroxide. After the treatment cells were fixed with 4% paraformaldehyde and then stained with F-actin phalloidin-conjugated cy3. Numbers of damaged cysts were counted using fluorescence microscope.
(§2) Type II Madin-Darby canine kidney (MDCK) cells (Control cells) were obtained from Dr. K. Mostov (UCSF, San Francisco, Calif.). MDCK type II cells were overexpressing hSec10 (Sec10-overexpressing cells). See, e.g, Lipschutz et al, 2000 cited above. Cells were grown in modified Eagle's minimal essential medium (MEM) containing Earl's balanced salt solution and glutamine supplemented with 5% fetal calf serum, 100 U/ml penicillin, and 100 μg/m streptomycin on the plastic culture dishes. Some cells were grown on the 24-mm Transwell 0.45 μm polycarbonate filter units coated with collagen (Corning Life Sciences, Lowell, Mass.). Pore size on all filters was 0.4 μm. Cell monolayers were used for experiments after 7 d of culture with daily changes in medium. Cells were plated as single cells in a three-dimensional (3D) type I collagen gel. […]

Experiment [2] concerns normal MDCK cells. The settings on record: U0126 30 min, then 1 mM H2O2 plus U0126 30 min. The method, then:
as §1, §2

Experiment [3] concerns phosphorylated (active) ERK. The settings on record: 10 μM U0126 for 30 min, then 1 mM H2O2 for 30 min; Transwell filter.
Method: Normal and hSec10-overexpressing (Sec10) MDCK cells were grown on transwell filter culture dish at confluence, incubated in either vehicle or 10 μM of U0126 (an inhibitor of ERK activation) for 30 min, and then treated with 1 mM of H2O2 for 30 min. After 30 min of incubation in U0126 cells were harvested and used to detect the levels of phosphorylated ERK. Cells were lysed in SDS buffer.
Briefly, cells or kidneys were harvested in the RIPA (Sigma Co.) containing proteinase inhibitor cocktail (Sigma. Co) and phosphatase inhibitor cocktail (Sigma. Co) and centrifuged 14,000 rpm for 20 min at 4° C. Supernatants, then, were collected and protein concentration was determined using BCA protein assay kit. Protein samples were mix SDS-sample buffer and denatured by 5 min of boiling at 95° C. The protein samples were separated on 4-12% SDS-PAGE gels and then transferred to an Immobilon membrane (Millipore Corp., Bedford, Mass.). The membranes were blocked by 5% of non-fat dry milk in PBS containing of 0.1% Tween-20 (PBS-T), and incubated in anti-phospho-ERK (1:1000, Cell signaling), -total-ERK (1:5000, Cell signaling), and -Sec10 (1:500; Lipschutz lab.) antibodies overnight at 4° C. After washing with 3 times with 0.1% PBS-T, the membranes were incubated with horseradish peroxidase-conjugated secondary antibodies for 1 h at RT. […]
Experiment [4] relates to control MDCK cells. The procedure:
(§3) Type II Madin-Darby canine kidney (MDCK) cells (Control cells) were obtained from Dr. K. Mostov (UCSF, San Francisco, Calif.). MDCK type II cells were overexpressing hSec10 (Sec10-overexpressing cells). See, e.g, Lipschutz et al, 2000 cited above. Cells were grown in modified Eagle's minimal essential medium (MEM) containing Earl's balanced salt solution and glutamine supplemented with 5% fetal calf serum, 100 U/ml penicillin, and 100 μg/m streptomycin on the plastic culture dishes. Some cells were grown on the 24-mm Transwell 0.45 μm polycarbonate filter units coated with collagen (Corning Life Sciences, Lowell, Mass.). Pore size on all filters was 0.4 μm. Cell monolayers were used for experiments after 7 d of culture with daily changes in medium. Cells were plated as single cells in a three-dimensional (3D) type I collagen gel. To culture collagen matrix, cells grown on plastic culture dishes were harvested using trypsin-EDTA, and suspended cells on the type I collagen gel and then seeded in chamber slide for 14 days and then treated with H2O2 (Sigma-Aldrich, Co.).
(§4) Control cells and Sec10-overexpressing cells were grown on the Transwell filter for 7 days after seeding. TER was measured using epithelial volt-ohmmeter (Model EVOM, World Precision Instruments). TER values were presented as the measured resistance in ohm multiplied by the surface area of the Transwell filter.
(§5) 1) control and Sec10-overexpressing cells were treated with U0126 alone for 30 min, U0126 plus H2O2 for 30 min, and then U0126 alone for 24 hrs (FIG. 5A), and
(§6) 2) control and Sec10-overexpressing cells were treated with H2O2 for 30 min, and U0126 alone for 24 hrs (FIG. 5B).

For experiment [5], the system named is Sec10-overexpressing MDCK cells. The method, then: as §3, §4, §5, §6

In the case of `N#CC(=C(/N)Sc1ccccc1N)/C(C#N)=C(\N)Sc1ccccc1N` [U0126], the “Numbers of damaged cysts” value in experiment [1] and in experiment [2] was “increased” throughout. Also, the “ERK phosphorylation caused by H2O2 treatment” value in experiment [3] was “blocked ERK phosphorylation”. Besides, the “TER relative to TER in H2O2 alone” value in experiment [4] is recorded as “about 83%”; in experiment [5], “about 80%”. The “TER recovery versus non-U0126 treated cells” value in experiment [4] (control cells, 24 hrs after removal of H2O2) is “not significantly different”. Also, the “H2O2-induced decrease of TER” value is “accelerated H2O2-induced decrease of TER” in experiment [4] (control cells, U0126 pretreatment 30 min, 1 mM H2O2) and “accelerated H2O2-induced decrease of TER” in experiment [5] (Sec10-overexpressing cells, U0126 pretreatment 30 min, 1 mM H2O2). Moreover, the “TER versus U0126-nontreated cells” value in experiment [5] (Sec10-overexpressing cells, 24 hrs after removal of H2O2) is recorded as “significantly lower”.

The values above are taken from US20150374851A1, “AAV VECTORS EXPRESSING SEC10 FOR TREATING KIDNEY DAMAGE” (The Trustees of the University of Pennsylvania, priority 2009, published 2015).
